The target in one test is Recombinant ROCK1 (Homo sapiens (Human), UniProt Q13464). Put plainly: Lance Ultra Kinase Assay, ROCK1 inhibition. The format is biochemical. To be noted: ATP at Km, 30 min pre-incubation, 1 h reaction.
Another test deals with Recombinant ROCK2 (Homo sapiens (Human), UniProt O75116). Nature of the test: Lance Ultra Kinase Assay, ROCK2 inhibition. Format: biochemical. Particulars: ATP at Km, 30 min pre-incubation, 1 h reaction.
Recombinant ROCK2, sequence (O75116 whole entry): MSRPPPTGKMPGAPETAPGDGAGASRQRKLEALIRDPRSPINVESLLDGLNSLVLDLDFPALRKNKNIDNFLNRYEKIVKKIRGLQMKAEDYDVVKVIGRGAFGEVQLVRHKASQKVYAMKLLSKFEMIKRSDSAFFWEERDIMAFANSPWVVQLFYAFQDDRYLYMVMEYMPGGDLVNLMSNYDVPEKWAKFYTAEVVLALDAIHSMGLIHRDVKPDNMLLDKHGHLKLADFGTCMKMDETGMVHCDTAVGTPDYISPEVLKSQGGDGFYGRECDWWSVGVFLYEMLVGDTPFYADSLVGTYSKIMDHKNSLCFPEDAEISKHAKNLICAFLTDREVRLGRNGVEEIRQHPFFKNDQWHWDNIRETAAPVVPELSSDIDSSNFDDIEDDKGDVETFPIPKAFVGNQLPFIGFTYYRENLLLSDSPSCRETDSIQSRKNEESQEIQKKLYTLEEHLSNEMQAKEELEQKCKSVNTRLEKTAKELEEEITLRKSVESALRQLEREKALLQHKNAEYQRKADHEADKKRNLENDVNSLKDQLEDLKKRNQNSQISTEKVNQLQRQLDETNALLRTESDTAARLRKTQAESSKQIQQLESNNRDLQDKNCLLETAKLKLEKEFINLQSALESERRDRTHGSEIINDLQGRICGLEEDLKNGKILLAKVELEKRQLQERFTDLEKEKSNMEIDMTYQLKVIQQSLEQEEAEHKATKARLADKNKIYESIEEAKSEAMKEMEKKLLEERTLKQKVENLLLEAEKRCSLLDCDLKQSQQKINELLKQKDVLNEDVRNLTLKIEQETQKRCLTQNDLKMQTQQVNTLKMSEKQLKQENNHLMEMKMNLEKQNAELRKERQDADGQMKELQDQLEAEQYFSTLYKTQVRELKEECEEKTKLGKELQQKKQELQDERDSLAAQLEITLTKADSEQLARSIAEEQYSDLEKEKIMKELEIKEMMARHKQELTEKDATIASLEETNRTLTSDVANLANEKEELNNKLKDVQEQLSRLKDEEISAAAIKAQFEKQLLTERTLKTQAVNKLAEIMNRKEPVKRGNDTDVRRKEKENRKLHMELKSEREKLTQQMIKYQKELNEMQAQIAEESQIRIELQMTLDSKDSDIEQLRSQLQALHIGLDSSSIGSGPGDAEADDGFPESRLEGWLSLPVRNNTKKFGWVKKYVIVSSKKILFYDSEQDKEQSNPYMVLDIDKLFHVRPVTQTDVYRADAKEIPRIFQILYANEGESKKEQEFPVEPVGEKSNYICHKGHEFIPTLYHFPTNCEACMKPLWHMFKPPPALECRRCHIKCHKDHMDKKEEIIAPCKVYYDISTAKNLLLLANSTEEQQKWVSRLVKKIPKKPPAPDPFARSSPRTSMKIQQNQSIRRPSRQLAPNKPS

Recombinant ROCK1, sequence (Q13464 whole entry): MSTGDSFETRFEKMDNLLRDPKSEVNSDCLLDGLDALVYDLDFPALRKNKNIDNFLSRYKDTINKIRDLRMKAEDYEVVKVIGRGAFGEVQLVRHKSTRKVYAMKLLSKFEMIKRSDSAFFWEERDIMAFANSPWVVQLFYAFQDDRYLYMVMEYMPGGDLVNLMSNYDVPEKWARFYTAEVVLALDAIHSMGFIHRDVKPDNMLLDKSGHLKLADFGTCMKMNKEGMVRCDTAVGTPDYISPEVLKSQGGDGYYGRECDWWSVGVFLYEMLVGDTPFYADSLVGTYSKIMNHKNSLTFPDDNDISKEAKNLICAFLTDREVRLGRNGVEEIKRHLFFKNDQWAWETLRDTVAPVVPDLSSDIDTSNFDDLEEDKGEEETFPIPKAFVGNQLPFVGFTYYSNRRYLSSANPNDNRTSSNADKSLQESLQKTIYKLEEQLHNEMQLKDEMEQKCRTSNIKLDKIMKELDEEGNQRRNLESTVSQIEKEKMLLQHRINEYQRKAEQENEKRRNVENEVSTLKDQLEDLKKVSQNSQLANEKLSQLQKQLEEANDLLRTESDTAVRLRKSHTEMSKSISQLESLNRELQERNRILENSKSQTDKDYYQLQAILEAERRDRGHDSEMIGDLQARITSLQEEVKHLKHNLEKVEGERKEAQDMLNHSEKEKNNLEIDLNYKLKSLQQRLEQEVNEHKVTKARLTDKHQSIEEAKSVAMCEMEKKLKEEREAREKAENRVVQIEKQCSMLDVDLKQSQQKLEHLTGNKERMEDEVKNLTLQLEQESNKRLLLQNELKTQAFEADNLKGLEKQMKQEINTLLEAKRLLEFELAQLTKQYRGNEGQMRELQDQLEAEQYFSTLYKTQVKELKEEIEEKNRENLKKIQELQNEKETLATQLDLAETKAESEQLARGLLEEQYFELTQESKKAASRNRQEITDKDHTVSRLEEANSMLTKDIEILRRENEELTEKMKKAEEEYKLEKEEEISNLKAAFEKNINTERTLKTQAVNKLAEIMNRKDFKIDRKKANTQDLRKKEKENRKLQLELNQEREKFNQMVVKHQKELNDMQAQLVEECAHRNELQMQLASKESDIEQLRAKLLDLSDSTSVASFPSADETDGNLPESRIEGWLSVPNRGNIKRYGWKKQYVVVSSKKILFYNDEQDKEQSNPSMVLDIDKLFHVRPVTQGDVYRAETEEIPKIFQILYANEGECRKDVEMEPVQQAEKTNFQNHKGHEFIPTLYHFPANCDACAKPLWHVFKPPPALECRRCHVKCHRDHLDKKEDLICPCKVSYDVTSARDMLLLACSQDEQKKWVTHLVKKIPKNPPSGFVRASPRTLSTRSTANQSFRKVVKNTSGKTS
Experimental for Recombinant ROCK1: (§1) The inhibition potency of compounds against these enzymes was assessed using Lance Ultra Kinase Assay. In brief, recombinant kinases were pre-incubated in the presence or absence of compound at room temperature for 30 minutes. The reaction was initiated by the addition of the ATP (Km) and substrate peptide which could be phosphorylated by kinases in the reaction. After 1 h incubation, the reaction was stopped by the addition of the detection reagent mix containing EDTA. The fluorescence was measured at 615 nm and 665 nm, respectively with excitation wavelength at 320 nm. The calculated signal ratio of 665 nm/615 nm is proportional to the kinase activity.
Experimental for Recombinant ROCK2: as §1

Turning to `COc1cccc(C(CN2CCN(C)CC2)C(=O)Nc2cccc3c(-c4cn[nH]c4)c[nH]c23)c1` (single isomer, unassigned) [Example 36, N-(3-(1H-pyrazol-4-yl)-1H-indol-7-yl)-2-(3-methoxyphenyl)-3-(4-methylpiperazin-1-yl)propanamide], the results for the 50% inhibitory concentration (IC50) on Recombinant ROCK1 and on Recombinant ROCK2 were 321 nM and 174 nM, respectively.
Regarding `CN1CCN(CC(C(=O)Nc2cccc3c(-c4cn[nH]c4)c[nH]c23)c2ccccc2)CC1` (single isomer, unassigned) [Example 39, N-(3-(1H-pyrazol-4-yl)-1H-indol-7-yl)-3-(4-methylpiperazin-1-yl)-2-phenylpropanamide], the concentration for half-maximal inhibition (IC50) at Recombinant ROCK1 came out at 175 nM; on Recombinant ROCK2, 116 nM.
For `CN1CCC(C(C(=O)Nc2cccc3c(-c4cn[nH]c4)c[nH]c23)c2ccccc2)CC1` (single isomer, unassigned) [Example 44, N-(3-(1H-pyrazol-4-yl)-1H-indol-7-yl)-2-(1-methylpiperidin-4-yl)-2-phenylacetamide], the values for the IC50 on Recombinant ROCK1 and on Recombinant ROCK2 were 111 nM and 70 nM, respectively.
Turning to `CN1CCN(C(C(=O)Nc2cccc3c(-c4cn[nH]c4)c[nH]c23)c2ccccc2)CC1` (single isomer, unassigned) [Example 47, N-(3-(1H-pyrazol-4-yl)-1H-indol-7-yl)-2-(4-methylpiperazin-1-yl)-2-phenylacetamide], the concentration for half-maximal inhibition (IC50) at Recombinant ROCK1 is 201 nM; at Recombinant ROCK2, 121 nM.
The like results for `CN1CCN(C(C(=O)Nc2cccc3c(-c4cn[nH]c4)c[nH]c23)c2ccccc2)CC1` (single isomer, unassigned) [Example 48, N-(3-(1H-pyrazol-4-yl)-1H-indol-7-yl)-2-(4-methylpiperazin-1-yl)-2-phenylacetamide] were, in that order, 1.6 nM and 0.84 nM.
Consider `CNC(=O)OCc1cccc(C(CN)C(=O)Nc2cccc3c(-c4cn[nH]c4)c[nH]c23)c1` (single isomer, unassigned) [Example 50, 3-(1-((3-(1H-pyrazol-4-yl)-1H-indol-7-yl)amino)-3-amino-1-oxopropan-2-yl)benzyl methylcarbamate], for which the figures for the IC50 at Recombinant ROCK1 and at Recombinant ROCK2 were 0.32 nM and 0.22 nM, respectively.
In the case of `CNC(=O)OCc1cccc(C(CN)C(=O)Nc2cccc3c(-c4cn[nH]c4)c[nH]c23)c1` (single isomer, unassigned) [Example 51, 3-(1-((3-(1H-pyrazol-4-yl)-1H-indol-7-yl)amino)-3-amino-1-oxopropan-2-yl)benzyl methylcarbamate], the values for the 50% inhibitory concentration (IC50) on Recombinant ROCK1 and at Recombinant ROCK2 were 33 nM and 22 nM, respectively.
On to `N#Cc1ccc(C(CN)C(=O)Nc2cccc3c(-c4cn[nH]c4)c[nH]c23)cc1` (single isomer, unassigned) [Example 58, N-(3-(1H-pyrazol-4-yl)-1H-indol-7-yl)-3-amino-2-(4-cyanophenyl)propanamide], for which the IC50 was 136 nM on Recombinant ROCK1 and 48 nM at Recombinant ROCK2.
In the case of `NCC(C(=O)Nc1cccc2c(-c3cn[nH]c3)c[nH]c12)c1ccc(CO)nc1` (single isomer, unassigned) [Example 61, N-(3-(1H-pyrazol-4-yl)-1H-indol-7-yl)-3-amino-2-(6-(hydroxymethyl)pyridin-3-yl)propanamide], the concentration for half-maximal inhibition (IC50) is 26 nM at Recombinant ROCK1 and 8.9 nM at Recombinant ROCK2.
On to `Cc1cncc(C(CN)C(=O)Nc2cccc3c(-c4cn[nH]c4)c[nH]c23)c1` (single isomer, unassigned) [Example 62, N-(3-(1H-pyrazol-4-yl)-1H-indol-7-yl)-3-amino-2-(5-methylpyridin-3-yl)propanamide], for which the half-maximal inhibitory concentration (IC50) at Recombinant ROCK1 turned out to be 68 nM; at Recombinant ROCK2, 31 nM.
As to `Cc1cncc(C(CN)C(=O)Nc2cccc3c(-c4cn[nH]c4)c[nH]c23)c1` (single isomer, unassigned) [Example 63, N-(3-(1H-pyrazol-4-yl)-1H-indol-7-yl)-3-amino-2-(5-methylpyridin-3-yl)propanamide], the IC50 on Recombinant ROCK1 was 0.43 nM; on Recombinant ROCK2, 0.24 nM.
For `NCC(C(=O)Nc1cccc2c(-c3cn[nH]c3)c[nH]c12)c1cccc(O)c1` (single isomer, unassigned) [Example 64, N-(3-(1H-pyrazol-4-yl)-1H-indol-7-yl)-3-amino-2-(3-hydroxyphenyl)propanamide], the IC50 on Recombinant ROCK1 is 0.37 nM; on Recombinant ROCK2, 0.19 nM.
Consider `NCC(C(=O)Nc1cccc2c(-c3cn[nH]c3)c[nH]c12)c1cccc(O)c1` (single isomer, unassigned) [Example 65, N-(3-(1H-pyrazol-4-yl)-1H-indol-7-yl)-3-amino-2-(3-hydroxyphenyl)propanamide], for which the IC50 was found to be 4.4 nM at Recombinant ROCK1 and 2.5 nM at Recombinant ROCK2.
The like results for `CN1CCN(CC(C(=O)Nc2cccc3c(-c4cn[nH]c4)c[nH]c23)c2cccnc2)CC1` (single isomer, unassigned) [Example 66, N-(3-(1H-pyrazol-4-yl)-1H-indol-7-yl)-3-(4-methylpiperazin-1-yl)-2-(pyridin-3-yl)propanamide] were, in that order, 604 nM and 310 nM.
The corresponding values for `CN1CCN(CC(C(=O)Nc2cccc3c(-c4cn[nH]c4)c[nH]c23)c2cccnc2)CC1` (single isomer, unassigned) [Example 67, N-(3-(1H-pyrazol-4-yl)-1H-indol-7-yl)-3-(4-methylpiperazin-1-yl)-2-(pyridin-3-yl)propanamide] are 2.6 nM and 1.6 nM.
`N#Cc1cccc([C@@H](N)C(=O)Nc2cccc3c(-c4cn[nH]c4)c[nH]c23)c1` (single isomer, unassigned) [Example 68, N-(3-(1H-pyrazol-4-yl)-1H-indol-7-yl)-2-amino-2-(3-cyanophenyl) acetamide]: the IC50 was found to be 4 nM on Recombinant ROCK1 and 1.5 nM at Recombinant ROCK2.
On to `N#Cc1cccc([C@H](N)C(=O)Nc2cccc3c(-c4cn[nH]c4)c[nH]c23)c1` (single isomer, unassigned) [Example 69, N-(3-(1H-pyrazol-4-yl)-1H-indol-7-yl)-2-amino-2-(3-cyanophenyl) acetamide], for which the IC50 at Recombinant ROCK1 is 21 nM; on Recombinant ROCK2, 9.2 nM.
The like results for `COc1cncc(C(CN2CCN(C)CC2)C(=O)Nc2cccc3c(-c4cn[nH]c4)c[nH]c23)c1` (single isomer, unassigned) [Example 110, N-(3-(1H-pyrazol-4-yl)-1H-indol-7-yl)-2-(5-methoxypyridin-3-yl)-3-(4-methylpiperazin-1-yl)propanamide] were, in that order, 6.6 nM and 3.3 nM.
Consider `COc1cncc(C(CN2CCN(C)CC2)C(=O)Nc2cccc3c(-c4cn[nH]c4)c[nH]c23)c1` (single isomer, unassigned) [Example 111, N-(3-(1H-pyrazol-4-yl)-1H-indol-7-yl)-2-(5-methoxypyridin-3-yl)-3-(4-methylpiperazin-1-yl)propanamide], for which the concentration for half-maximal inhibition (IC50) is 297 nM at Recombinant ROCK1 and 167 nM at Recombinant ROCK2.
`NCC(C(=O)Nc1cccc2c(-c3cn[nH]c3)c[nH]c12)c1ccc(C(N)=O)cc1` (single isomer, unassigned) [Example 112, 4-(1-((3-(1H-pyrazol-4-yl)-1H-indol-7-yl)amino)-3-amino-1-oxopropan-2-yl)benzamide]: the results for the 50% inhibitory concentration (IC50) at Recombinant ROCK1 and on Recombinant ROCK2 were 1.3 nM and 0.47 nM, respectively.
For `NCC(C(=O)Nc1cccc2c(-c3cn[nH]c3)c[nH]c12)c1ccc(C(N)=O)cc1` (single isomer, unassigned) [Example 113, 4-(1-((3-(1H-pyrazol-4-yl)-1H-indol-7-yl)amino)-3-amino-1-oxopropan-2-yl)benzamide], the IC50 is 110 nM at Recombinant ROCK1 and 43 nM at Recombinant ROCK2.
